# According to PubChem BioAssay (NCI):
#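 Five compound concentrations were applied to cells in 96-well plates for 48 hours; endpoints were derived by simple linear interpolation of the resulting dose-response curve. TGI: concentration producing complete growth inhibition.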
# System: SW-620 colon
# Assay: NCI tumour cell line growth inhibition, 48 h
row,Structure (SMILES),TGI [µM]
1,COc1cc(C(C#N)NNc2nc(C)cc(=O)[nH]2)cc(OC)c1OC (configuration not stated),> 100
2,COC(=O)C(C(=O)C(N)=O)c1csc(-n2nc(-c3ccccc3)cc2-c2ccccc2)n1 (configuration not stated),6.02

# System: CCRF-CEM leukemia
# Assay: NCI tumour cell line growth inhibition, 48 h
row,Structure (SMILES),TGI [µM]
1,c1ccc(-c2ccnc3c2ccc2c(-c4ccccc4)ccnc23)cc1,2.84
2,CC(=O)NC(CCCN(Cc1ccccc1)C(=O)N(C)N=O)C(=O)NCc1ccccc1 (configuration not stated),> 100
3,O=C(/C=C/C1C(=O)NC(=O)NC1=O)CC(=O)C(=O)Nc1cc(Cl)c(Cl)cc1Cl,> 100
4,c1ccc(-c2nnc3nn4c(-c5ccccc5)cnnc4c3c2-c2ccccc2)cc1,> 100
5,CCOC(=O)C(C)N1C(=O)c2ccccc2S1(=O)=O (configuration not stated),> 100
6,COc1cc(C(C#N)NNc2nc(C)cc(=O)[nH]2)cc(OC)c1OC (configuration not stated),> 100
7,COC(=O)C(C(=O)C(N)=O)c1csc(-n2nc(-c3ccccc3)cc2-c2ccccc2)n1 (configuration not stated),> 31.6

# System: LXFL 529 NSCLC
# Assay: NCI tumour cell line growth inhibition, 48 h
row,Structure (SMILES),TGI [µM]
1,c1ccc(-c2ccnc3c2ccc2c(-c4ccccc4)ccnc23)cc1,11.5
2,CC(=O)NC(CCCN(Cc1ccccc1)C(=O)N(C)N=O)C(=O)NCc1ccccc1 (configuration not stated),> 100
3,O=C(/C=C/C1C(=O)NC(=O)NC1=O)CC(=O)C(=O)Nc1cc(Cl)c(Cl)cc1Cl,> 100
4,c1ccc(-c2nnc3nn4c(-c5ccccc5)cnnc4c3c2-c2ccccc2)cc1,> 100
5,COc1cc(C(C#N)NNc2nc(C)cc(=O)[nH]2)cc(OC)c1OC (configuration not stated),> 100
6,COC(=O)C(C(=O)C(N)=O)c1csc(-n2nc(-c3ccccc3)cc2-c2ccccc2)n1 (configuration not stated),> 31.6

# System: SF-268 CNS
# Assay: NCI tumour cell line growth inhibition, 48 h
row,Structure (SMILES),TGI [µM]
1,c1ccc(-c2ccnc3c2ccc2c(-c4ccccc4)ccnc23)cc1,13.3
2,CC(=O)NC(CCCN(Cc1ccccc1)C(=O)N(C)N=O)C(=O)NCc1ccccc1 (configuration not stated),> 100
3,O=C(/C=C/C1C(=O)NC(=O)NC1=O)CC(=O)C(=O)Nc1cc(Cl)c(Cl)cc1Cl,> 100
4,CCOC(=O)C(C)N1C(=O)c2ccccc2S1(=O)=O (configuration not stated),> 100
5,COc1cc(C(C#N)NNc2nc(C)cc(=O)[nH]2)cc(OC)c1OC (configuration not stated),> 100
6,COC(=O)C(C(=O)C(N)=O)c1csc(-n2nc(-c3ccccc3)cc2-c2ccccc2)n1 (configuration not stated),> 31.6

# System: XF 498 CNS
# Assay: NCI tumour cell line growth inhibition, 48 h
row,Structure (SMILES),TGI [µM]
1,CC(=O)NC(CCCN(Cc1ccccc1)C(=O)N(C)N=O)C(=O)NCc1ccccc1 (configuration not stated),> 100
2,O=C(/C=C/C1C(=O)NC(=O)NC1=O)CC(=O)C(=O)Nc1cc(Cl)c(Cl)cc1Cl,> 100
3,c1ccc(-c2nnc3nn4c(-c5ccccc5)cnnc4c3c2-c2ccccc2)cc1,57.1
4,CCOC(=O)C(C)N1C(=O)c2ccccc2S1(=O)=O (configuration not stated),> 100
5,COC(=O)C(C(=O)C(N)=O)c1csc(-n2nc(-c3ccccc3)cc2-c2ccccc2)n1 (configuration not stated),> 31.6

# System: NCI-H460 lung
# Assay: NCI tumour cell line growth inhibition, 48 h
row,Structure (SMILES),TGI [µM]
1,c1ccc(-c2ccnc3c2ccc2c(-c4ccccc4)ccnc23)cc1,7.28
2,CC(=O)NC(CCCN(Cc1ccccc1)C(=O)N(C)N=O)C(=O)NCc1ccccc1 (configuration not stated),> 100
3,O=C(/C=C/C1C(=O)NC(=O)NC1=O)CC(=O)C(=O)Nc1cc(Cl)c(Cl)cc1Cl,> 100
4,c1ccc(-c2nnc3nn4c(-c5ccccc5)cnnc4c3c2-c2ccccc2)cc1,> 100
5,CCOC(=O)C(C)N1C(=O)c2ccccc2S1(=O)=O (configuration not stated),> 100
6,COc1cc(C(C#N)NNc2nc(C)cc(=O)[nH]2)cc(OC)c1OC (configuration not stated),> 100
7,COC(=O)C(C(=O)C(N)=O)c1csc(-n2nc(-c3ccccc3)cc2-c2ccccc2)n1 (configuration not stated),> 31.6

# System: CAKI-1 renal
# Assay: NCI tumour cell line growth inhibition, 48 h
row,Structure (SMILES),TGI [µM]
1,CC(=O)NC(CCCN(Cc1ccccc1)C(=O)N(C)N=O)C(=O)NCc1ccccc1 (configuration not stated),> 100
2,O=C(/C=C/C1C(=O)NC(=O)NC1=O)CC(=O)C(=O)Nc1cc(Cl)c(Cl)cc1Cl,> 100
3,c1ccc(-c2nnc3nn4c(-c5ccccc5)cnnc4c3c2-c2ccccc2)cc1,45.6
4,CCOC(=O)C(C)N1C(=O)c2ccccc2S1(=O)=O (configuration not stated),> 100
5,COc1cc(C(C#N)NNc2nc(C)cc(=O)[nH]2)cc(OC)c1OC (configuration not stated),> 100
6,COC(=O)C(C(=O)C(N)=O)c1csc(-n2nc(-c3ccccc3)cc2-c2ccccc2)n1 (configuration not stated),15.5

# System: SR leukemia
# Assay: NCI tumour cell line growth inhibition, 48 h
row,Structure (SMILES),TGI [µM]
1,c1ccc(-c2ccnc3c2ccc2c(-c4ccccc4)ccnc23)cc1,1.29
2,O=C(/C=C/C1C(=O)NC(=O)NC1=O)CC(=O)C(=O)Nc1cc(Cl)c(Cl)cc1Cl,> 100
3,c1ccc(-c2nnc3nn4c(-c5ccccc5)cnnc4c3c2-c2ccccc2)cc1,> 100
4,COc1cc(C(C#N)NNc2nc(C)cc(=O)[nH]2)cc(OC)c1OC (configuration not stated),> 100

# System: IGROV1 ovarian
# Assay: NCI tumour cell line growth inhibition, 48 h
row,Structure (SMILES),TGI [µM]
1,c1ccc(-c2ccnc3c2ccc2c(-c4ccccc4)ccnc23)cc1,18.2
2,CC(=O)NC(CCCN(Cc1ccccc1)C(=O)N(C)N=O)C(=O)NCc1ccccc1 (configuration not stated),> 100
3,O=C(/C=C/C1C(=O)NC(=O)NC1=O)CC(=O)C(=O)Nc1cc(Cl)c(Cl)cc1Cl,> 100
4,CCOC(=O)C(C)N1C(=O)c2ccccc2S1(=O)=O (configuration not stated),> 100
5,COc1cc(C(C#N)NNc2nc(C)cc(=O)[nH]2)cc(OC)c1OC (configuration not stated),> 100
6,COC(=O)C(C(=O)C(N)=O)c1csc(-n2nc(-c3ccccc3)cc2-c2ccccc2)n1 (configuration not stated),> 31.6

# System: HOP-92 NSCLC
# Assay: NCI tumour cell line growth inhibition, 48 h
row,Structure (SMILES),TGI [µM]
1,CC(=O)NC(CCCN(Cc1ccccc1)C(=O)N(C)N=O)C(=O)NCc1ccccc1 (configuration not stated),> 100
2,c1ccc(-c2nnc3nn4c(-c5ccccc5)cnnc4c3c2-c2ccccc2)cc1,> 100
3,CCOC(=O)C(C)N1C(=O)c2ccccc2S1(=O)=O (configuration not stated),> 100
4,COc1cc(C(C#N)NNc2nc(C)cc(=O)[nH]2)cc(OC)c1OC (configuration not stated),> 100
5,COC(=O)C(C(=O)C(N)=O)c1csc(-n2nc(-c3ccccc3)cc2-c2ccccc2)n1 (configuration not stated),> 100

# System: HCT-116 colon
# Assay: NCI tumour cell line growth inhibition, 48 h
row,Structure (SMILES),TGI [µM]
1,c1ccc(-c2ccnc3c2ccc2c(-c4ccccc4)ccnc23)cc1,10.4
2,CC(=O)NC(CCCN(Cc1ccccc1)C(=O)N(C)N=O)C(=O)NCc1ccccc1 (configuration not stated),> 100
3,O=C(/C=C/C1C(=O)NC(=O)NC1=O)CC(=O)C(=O)Nc1cc(Cl)c(Cl)cc1Cl,> 100
4,c1ccc(-c2nnc3nn4c(-c5ccccc5)cnnc4c3c2-c2ccccc2)cc1,> 100
5,CCOC(=O)C(C)N1C(=O)c2ccccc2S1(=O)=O (configuration not stated),> 100
6,COc1cc(C(C#N)NNc2nc(C)cc(=O)[nH]2)cc(OC)c1OC (configuration not stated),> 100
7,COC(=O)C(C(=O)C(N)=O)c1csc(-n2nc(-c3ccccc3)cc2-c2ccccc2)n1 (configuration not stated),> 31.6

# System: SN12K1 renal
# Assay: NCI tumour cell line growth inhibition, 48 h
row,Structure (SMILES),TGI [µM]
1,CCOC(=O)C(C)N1C(=O)c2ccccc2S1(=O)=O (configuration not stated),> 100

# System: MCF7 breast
# Assay: NCI tumour cell line growth inhibition, 48 h
row,Structure (SMILES),TGI [µM]
1,CCOC(=O)C(C)N1C(=O)c2ccccc2S1(=O)=O (configuration not stated),> 100

# System: HCT-15 colon
# Assay: NCI tumour cell line growth inhibition, 48 h
row,Structure (SMILES),TGI [µM]
1,CC(=O)NC(CCCN(Cc1ccccc1)C(=O)N(C)N=O)C(=O)NCc1ccccc1 (configuration not stated),> 100
2,O=C(/C=C/C1C(=O)NC(=O)NC1=O)CC(=O)C(=O)Nc1cc(Cl)c(Cl)cc1Cl,> 100
3,c1ccc(-c2nnc3nn4c(-c5ccccc5)cnnc4c3c2-c2ccccc2)cc1,> 100
4,CCOC(=O)C(C)N1C(=O)c2ccccc2S1(=O)=O (configuration not stated),> 100
5,COc1cc(C(C#N)NNc2nc(C)cc(=O)[nH]2)cc(OC)c1OC (configuration not stated),> 100
6,COC(=O)C(C(=O)C(N)=O)c1csc(-n2nc(-c3ccccc3)cc2-c2ccccc2)n1 (configuration not stated),> 31.6

# System: DMS 114 small cell lung
# Assay: NCI tumour cell line growth inhibition, 48 h
row,Structure (SMILES),TGI [µM]
1,c1ccc(-c2ccnc3c2ccc2c(-c4ccccc4)ccnc23)cc1,12.7
2,CC(=O)NC(CCCN(Cc1ccccc1)C(=O)N(C)N=O)C(=O)NCc1ccccc1 (configuration not stated),> 100
3,O=C(/C=C/C1C(=O)NC(=O)NC1=O)CC(=O)C(=O)Nc1cc(Cl)c(Cl)cc1Cl,> 100
4,c1ccc(-c2nnc3nn4c(-c5ccccc5)cnnc4c3c2-c2ccccc2)cc1,> 100
5,CCOC(=O)C(C)N1C(=O)c2ccccc2S1(=O)=O (configuration not stated),> 100
6,COC(=O)C(C(=O)C(N)=O)c1csc(-n2nc(-c3ccccc3)cc2-c2ccccc2)n1 (configuration not stated),25.2

# System: UO-31 renal
# Assay: NCI tumour cell line growth inhibition, 48 h
row,Structure (SMILES),TGI [µM]
1,c1ccc(-c2ccnc3c2ccc2c(-c4ccccc4)ccnc23)cc1,4.91
2,CC(=O)NC(CCCN(Cc1ccccc1)C(=O)N(C)N=O)C(=O)NCc1ccccc1 (configuration not stated),> 100
3,O=C(/C=C/C1C(=O)NC(=O)NC1=O)CC(=O)C(=O)Nc1cc(Cl)c(Cl)cc1Cl,> 100
4,c1ccc(-c2nnc3nn4c(-c5ccccc5)cnnc4c3c2-c2ccccc2)cc1,75.1
5,CCOC(=O)C(C)N1C(=O)c2ccccc2S1(=O)=O (configuration not stated),> 100
6,COc1cc(C(C#N)NNc2nc(C)cc(=O)[nH]2)cc(OC)c1OC (configuration not stated),> 100
7,COC(=O)C(C(=O)C(N)=O)c1csc(-n2nc(-c3ccccc3)cc2-c2ccccc2)n1 (configuration not stated),28.9

# System: P388 leukemia
# Assay: NCI tumour cell line growth inhibition, 48 h
row,Structure (SMILES),TGI [µM]
1,CCOC(=O)C(C)N1C(=O)c2ccccc2S1(=O)=O (configuration not stated),> 100

# System: HOP-18 NSCLC
# Assay: NCI tumour cell line growth inhibition, 48 h
row,Structure (SMILES),TGI [µM]
1,c1ccc(-c2ccnc3c2ccc2c(-c4ccccc4)ccnc23)cc1,11.4
2,O=C(/C=C/C1C(=O)NC(=O)NC1=O)CC(=O)C(=O)Nc1cc(Cl)c(Cl)cc1Cl,> 100
3,c1ccc(-c2nnc3nn4c(-c5ccccc5)cnnc4c3c2-c2ccccc2)cc1,> 100
4,CCOC(=O)C(C)N1C(=O)c2ccccc2S1(=O)=O (configuration not stated),> 100
5,COc1cc(C(C#N)NNc2nc(C)cc(=O)[nH]2)cc(OC)c1OC (configuration not stated),> 100
6,COC(=O)C(C(=O)C(N)=O)c1csc(-n2nc(-c3ccccc3)cc2-c2ccccc2)n1 (configuration not stated),> 31.6

# System: LOX IMVI melanoma
# Assay: NCI tumour cell line growth inhibition, 48 h
row,Structure (SMILES),TGI [µM]
1,c1ccc(-c2ccnc3c2ccc2c(-c4ccccc4)ccnc23)cc1,14.8
2,CC(=O)NC(CCCN(Cc1ccccc1)C(=O)N(C)N=O)C(=O)NCc1ccccc1 (configuration not stated),> 100
3,O=C(/C=C/C1C(=O)NC(=O)NC1=O)CC(=O)C(=O)Nc1cc(Cl)c(Cl)cc1Cl,> 100
4,c1ccc(-c2nnc3nn4c(-c5ccccc5)cnnc4c3c2-c2ccccc2)cc1,> 100
5,CCOC(=O)C(C)N1C(=O)c2ccccc2S1(=O)=O (configuration not stated),> 100
6,COc1cc(C(C#N)NNc2nc(C)cc(=O)[nH]2)cc(OC)c1OC (configuration not stated),> 100
7,COC(=O)C(C(=O)C(N)=O)c1csc(-n2nc(-c3ccccc3)cc2-c2ccccc2)n1 (configuration not stated),> 100

# System: NCI-H226 lung
# Assay: NCI tumour cell line growth inhibition, 48 h
row,Structure (SMILES),TGI [µM]
1,c1ccc(-c2ccnc3c2ccc2c(-c4ccccc4)ccnc23)cc1,4.76
